# Several values for one entry are separate records, joined by “and”; a condition that tells them apart may be missing. Equal values may be shown once. Marks after values point to notes of the source that are not given here.
# How the values were obtained:
# Assay type in all cases: in vivo, human
# [1] = Safety: adverse events graded by CTCAE v4.0; conditions: with paclitaxel and carboplatin
# [2] = RO4929097 plasma pharmacokinetics; conditions: for AUC(0-inf) / Cmax / half-life / Vd/F: human, plasma, oral; for Vd/F: Vz/F
# [3] = system: stage II-III TNBC; experiment: Clinico-pathological response to neoadjuvant treatment
# [4] = ECG monitoring during cycle 1; conditions: 10 patients, cycle 1, before and after dosing on days 1 and 17
# [5] = 20 mg dose, Cycle 1 Day 15, N = 3, mean ± SD
# [6] = 10 mg, 10 mg dose, Cycle 1 Day 1, N = 8, mean ± SD
# [7] = 10 mg, 10 mg dose, Cycle 1 Day 15, N = 7, mean ± SD
# [8] = 10 mg, 10 mg dose, Cycle 1 Day 17, N = 6, mean ± SD
# [9] = 20 mg, 20 mg dose, Cycle 1 Day 1, N = 4, mean ± SD
# [10] = 20 mg, 20 mg dose, Cycle 1 Day 15, N = 3, mean ± SD
# [11] = 20 mg, 20 mg dose, Cycle 1 Day 17, N = 2, mean ± SD
smiles,measurement,setting,value
CC(C)(C(=O)NCC(F)(F)C(F)(F)F)C(=O)N[C@@H]1C(=O)Nc2ccccc2-c2ccccc21 [RO4929097],"Lymphocytopenia, All Grades","[1]; treatment-related AE, N = 14",12 (86) N (%)
same,"Lymphocytopenia, Grade 1","[1]; treatment-related AE, N = 14",5 (36) N (%)
same,"Lymphocytopenia, Grade 2","[1]; treatment-related AE, N = 14",5 (36) N (%)
same,"Lymphocytopenia, Grade 3","[1]; treatment-related AE, N = 14",2 (14) N (%)
same,"Lymphocytopenia, Grade 4","[1]; treatment-related AE, N = 14",0 (0) N (%)
same,"Nausea, All Grades","[1]; treatment-related AE, N = 14",12 (86) N (%)
same,"Nausea, Grade 1","[1]; treatment-related AE, N = 14",9 (64) N (%)
same,"Nausea, Grade 2","[1]; treatment-related AE, N = 14",3 (21) N (%)
same,"Nausea, Grade 3","[1]; treatment-related AE, N = 14",0 (0) N (%)
same,"Nausea, Grade 4","[1]; treatment-related AE, N = 14",0 (0) N (%)
same,"Neutropenia, All Grades","[1]; treatment-related AE, N = 14",11 (79) N (%)
same,"Neutropenia, Grade 1","[1]; treatment-related AE, N = 14",0 (0) N (%)
same,"Neutropenia, Grade 2","[1]; treatment-related AE, N = 14",3 (21) N (%)
same,"Neutropenia, Grade 3","[1]; treatment-related AE, N = 14",6 (43%) N (%) and 6 (43) N (%)
same,"Neutropenia, Grade 4","[1]; treatment-related AE, N = 14",2 (14%) N (%) and 2 (14) N (%)
same,"Peripheral sensory neuropathy, All Grades","[1]; treatment-related AE, N = 14",12 (86) N (%)
same,"Peripheral sensory neuropathy, Grade 1","[1]; treatment-related AE, N = 14",6 (43) N (%)
same,"Peripheral sensory neuropathy, Grade 2","[1]; treatment-related AE, N = 14",4 (29) N (%)
same,"Peripheral sensory neuropathy, Grade 3","[1]; treatment-related AE, N = 14",2 (14%) N (%) and 2 (14) N (%)
same,"Peripheral sensory neuropathy, Grade 4","[1]; treatment-related AE, N = 14",0 (0) N (%)
same,"Rash maculo-papular, All Grades","[1]; treatment-related AE, N = 14",10 (71) N (%)
same,"Rash maculo-papular, Grade 1","[1]; treatment-related AE, N = 14",7 (50) N (%)
same,"Rash maculo-papular, Grade 2","[1]; treatment-related AE, N = 14",3 (21) N (%)
same,"Rash maculo-papular, Grade 3","[1]; treatment-related AE, N = 14",0 (0) N (%)
same,"Rash maculo-papular, Grade 4","[1]; treatment-related AE, N = 14",0 (0) N (%)
same,"Thrombocytopenia, All Grades","[1]; treatment-related AE, N = 14",11 (79) N (%)
same,"Thrombocytopenia, Grade 1","[1]; treatment-related AE, N = 14",4 (29) N (%)
same,"Thrombocytopenia, Grade 2","[1]; treatment-related AE, N = 14",2 (14) N (%)
same,"Thrombocytopenia, Grade 3","[1]; treatment-related AE, N = 14",4 (29%) N (%) and 4 (29) N (%)
same,"Thrombocytopenia, Grade 4","[1]; treatment-related AE, N = 14",1 (7%) N (%) and 1 (7) N (%)
same,Hospitalizations for neutropenic fevers or other treatment-related toxicities,[1],no hospitalizations
same,"G3 or higher thrombocytopenia, patients",[1]; N = 5,36%
same,"G3 or higher neutropenia, patients",[1]; N = 8,57%
same,Patients with Grade 2/Grade 3 neuropathy requiring dose reduction of paclitaxel,[1]; six patients,43%
same,CL/F,"[2]; 10 mg dose, Cycle 1 Day 1, N = 8, mean ± SD",3.21 ± 0.84 L/h
same,CL/F,"[2]; 10 mg dose, Cycle 1 Day 15, N = 7, mean ± SD",2.70 ± 1.07 L/h
same,CL/F,"[2]; 10 mg dose, Cycle 1 Day 17, N = 6, mean ± SD",1.97 ± 1.12 L/h
same,CL/F,"[2]; 20 mg dose, Cycle 1 Day 1, N = 4, mean ± SD",3.87 ± 1.09 L/h
same,CL/F,[2]; [5],3.90 ± 2.20 L/h
same,Half life,[2]; [5],36.0 ± 31.7 h
same,CL/F,"[2]; 20 mg dose, Cycle 1 Day 17, N = 2, mean ± SD",2.47 ± 2.55 L/h
same,Exposure on day 15 compared to day 1,[2]; cycle 1,125%
same,AUC (exposure) on day 17 compared to day 1,"[2]; cycle 1, both dose levels",220%
same,Cmax on day 17 compared to day 1,"[2]; cycle 1, both dose levels",158%
same,AUC(0-inf),[2]; [6],3280 ± 749 ng·h/mL
same,AUC(0-inf),[2]; [7],4120 ± 2140 ng·h/mL
same,AUC(0-inf),[2]; [8],6210 ± 2610 ng·h/mL
same,Cmax,[2]; [6],203 ± 92.7 ng/mL
same,Cmax,[2]; [7],177 ± 93.6 ng/mL
same,Cmax,[2]; [8],259 ± 113 ng/mL
same,half-life,[2]; [6],14.7 ± 2.2 h
same,half-life,[2]; [7],20.1 ± 11.2 h
same,half-life,[2]; [8],20.6 ± 7 h
same,Vd/F,[2]; [7],76.8 ± 46.8 L
same,Vd/F,[2]; [8],55.6 ± 25.4 L
same,AUC(0-inf),[2]; [9],5520 ± 1680 ng·h/mL
same,AUC(0-inf),[2]; [10],6730 ± 4230 ng·h/mL
same,AUC(0-inf),[2]; [11],17400 ng·h/mL
same,Cmax,[2]; [9],324 ± 116 ng/mL
same,Cmax,[2]; [10],234 ± 25 ng/mL
same,Cmax,[2]; [11],422 ± 42.6 ng/mL
same,half-life,[2]; [9],22.8 ± 12.4 h
same,half-life,[2]; [11],39.3 ± 39.9 h
same,Vd/F,[2]; [9],115 ± 38.6 L
same,Vd/F,[2]; [10],139 ± 37.5 L
same,Vd/F,[2]; [11],66.3 ± 2.4 L
same,"pCR, patients","[3]; 5 of 14 patients, with paclitaxel and carboplatin",36%
same,Patients with residual disease in the breast and lymph nodes,"[3]; 5 patients, with paclitaxel and carboplatin",36%
same,Overall response rate,[3]; 9 of 14 patients who completed chemotherapy (1 never received RO4929097),64%
same,Complete pathologic response,"[3]; neoadjuvant, with paclitaxel and carboplatin, N = 14",5 (36) N (%)
same,Residual disease,"[3]; neoadjuvant, with paclitaxel and carboplatin, N = 14, one patient did not receive RO4929097","9 (64)^a,b N (%)"
same,QTc prolongation or other clinically significant ECG changes,[4],No QTc prolongation or other clinically significant ECG changes were observed

# — paper PMC7955776 (Investigational new drugs, 2020)
